The record followed here is ChEMBL document CHEMBL5465560, “Selectivity Literature for EUbOPEN Chemogenomic Library” (2024).

A word on the IC50: it is the concentration at which inhibition is half-maximal.

Experiment [1] has as its target Tyrosine-protein kinase Lck (Homo sapiens, UniProt P06239). Description: Selectivity interaction (Radiometric kinase assay (using 10 uM ATP)) EUB0000601a LCK.
The target of experiment [2] is Dual specificity mitogen-activated protein kinase kinase 2 (Homo sapiens) (UniProt P36507). Conditions: at 10 µM.
For experiment [3], the target named is Calcium/calmodulin-dependent protein kinase type II subunit beta (Homo sapiens) (UniProt Q13554). Put plainly: Selectivity interaction (KinomeScan (DiscoverX)) EUB0001079a CAMK2B. Conditions: at 1 µM.
For experiment [4], the target named is Receptor-type tyrosine-protein kinase FLT3 (Homo sapiens) (UniProt P36888). Put plainly: Selectivity interaction (KinomeScan (DiscoverX)) EUB0001049a FLT3. Conditions: at 1 µM.
The target of experiment [5] is Serine/threonine-protein kinase B-raf (Homo sapiens) (UniProt P15056). The note with it: at 10 µM.
Experiment [6] addresses T1, Serine/threonine-protein kinase D1 (Homo sapiens) (UniProt Q15139).
T1 sequence (whole entry): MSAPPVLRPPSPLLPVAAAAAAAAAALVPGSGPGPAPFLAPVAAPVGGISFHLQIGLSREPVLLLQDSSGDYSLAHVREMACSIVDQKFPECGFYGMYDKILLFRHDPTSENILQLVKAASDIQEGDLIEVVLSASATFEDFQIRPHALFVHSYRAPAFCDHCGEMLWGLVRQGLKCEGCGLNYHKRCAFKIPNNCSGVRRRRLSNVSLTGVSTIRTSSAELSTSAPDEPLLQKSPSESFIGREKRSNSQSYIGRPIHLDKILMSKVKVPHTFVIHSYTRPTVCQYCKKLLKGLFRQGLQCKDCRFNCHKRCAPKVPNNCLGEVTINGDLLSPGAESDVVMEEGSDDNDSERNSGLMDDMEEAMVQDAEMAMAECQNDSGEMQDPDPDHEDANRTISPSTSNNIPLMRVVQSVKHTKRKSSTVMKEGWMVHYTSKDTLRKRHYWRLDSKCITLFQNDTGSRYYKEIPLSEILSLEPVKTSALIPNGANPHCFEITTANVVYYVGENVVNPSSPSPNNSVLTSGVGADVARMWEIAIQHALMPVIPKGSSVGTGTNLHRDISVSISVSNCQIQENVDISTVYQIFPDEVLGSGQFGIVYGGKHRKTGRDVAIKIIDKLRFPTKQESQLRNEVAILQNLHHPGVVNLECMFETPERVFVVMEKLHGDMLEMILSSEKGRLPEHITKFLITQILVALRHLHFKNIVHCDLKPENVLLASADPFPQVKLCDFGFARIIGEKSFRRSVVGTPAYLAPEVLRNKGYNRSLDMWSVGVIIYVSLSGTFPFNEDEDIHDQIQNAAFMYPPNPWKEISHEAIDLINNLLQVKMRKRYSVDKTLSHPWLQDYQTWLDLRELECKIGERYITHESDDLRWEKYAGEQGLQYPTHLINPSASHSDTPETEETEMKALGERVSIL
Put plainly: Selectivity interaction (Kinase screening (Nanosyn)) EUB0000604a PRKD1.

The target of experiment [7] is TRAF2 and NCK-interacting protein kinase (Homo sapiens) (UniProt Q9UKE5). Put plainly: Selectivity interaction (KinomeScan (DiscoverX)) EUB0000045b TNIK.
In experiment [8] the target is T2, Ephrin type-A receptor 3 (Homo sapiens) (UniProt P29320).
T2 sequence (whole entry): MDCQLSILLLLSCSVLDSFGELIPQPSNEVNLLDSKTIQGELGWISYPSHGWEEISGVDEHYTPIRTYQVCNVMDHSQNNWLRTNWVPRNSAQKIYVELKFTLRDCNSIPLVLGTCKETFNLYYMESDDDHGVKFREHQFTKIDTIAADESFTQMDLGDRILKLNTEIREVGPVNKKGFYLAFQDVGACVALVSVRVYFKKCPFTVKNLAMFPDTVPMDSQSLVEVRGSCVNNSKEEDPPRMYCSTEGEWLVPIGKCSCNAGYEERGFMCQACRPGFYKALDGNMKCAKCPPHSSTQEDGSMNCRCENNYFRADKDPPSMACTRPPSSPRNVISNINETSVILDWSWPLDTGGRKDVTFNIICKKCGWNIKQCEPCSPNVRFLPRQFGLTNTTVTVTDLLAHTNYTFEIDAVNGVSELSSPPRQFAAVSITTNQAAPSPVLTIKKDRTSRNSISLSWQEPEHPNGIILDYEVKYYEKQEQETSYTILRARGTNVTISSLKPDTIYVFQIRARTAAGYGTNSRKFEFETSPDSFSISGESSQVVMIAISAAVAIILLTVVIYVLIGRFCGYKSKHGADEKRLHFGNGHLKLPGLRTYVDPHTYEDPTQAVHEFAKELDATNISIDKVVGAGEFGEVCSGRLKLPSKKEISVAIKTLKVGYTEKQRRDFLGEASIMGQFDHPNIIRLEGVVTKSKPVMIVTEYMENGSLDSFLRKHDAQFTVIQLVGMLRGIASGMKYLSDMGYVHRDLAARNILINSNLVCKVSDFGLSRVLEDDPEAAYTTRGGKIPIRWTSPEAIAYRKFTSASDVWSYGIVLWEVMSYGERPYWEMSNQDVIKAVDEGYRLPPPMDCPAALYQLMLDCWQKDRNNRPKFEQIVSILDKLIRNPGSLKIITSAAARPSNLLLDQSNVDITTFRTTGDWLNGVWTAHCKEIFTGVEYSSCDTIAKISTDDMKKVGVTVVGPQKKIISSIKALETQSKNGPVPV
Description: Selectivity interaction (KinomeScan (DiscoverX)) EUB0000607a EPHA3. Conditions: at 10 µM.

Experiment [9] deals with T3, Membrane-associated tyrosine- and threonine-specific cdc2-inhibitory kinase (Homo sapiens) (UniProt Q99640).
T3 sequence (whole entry): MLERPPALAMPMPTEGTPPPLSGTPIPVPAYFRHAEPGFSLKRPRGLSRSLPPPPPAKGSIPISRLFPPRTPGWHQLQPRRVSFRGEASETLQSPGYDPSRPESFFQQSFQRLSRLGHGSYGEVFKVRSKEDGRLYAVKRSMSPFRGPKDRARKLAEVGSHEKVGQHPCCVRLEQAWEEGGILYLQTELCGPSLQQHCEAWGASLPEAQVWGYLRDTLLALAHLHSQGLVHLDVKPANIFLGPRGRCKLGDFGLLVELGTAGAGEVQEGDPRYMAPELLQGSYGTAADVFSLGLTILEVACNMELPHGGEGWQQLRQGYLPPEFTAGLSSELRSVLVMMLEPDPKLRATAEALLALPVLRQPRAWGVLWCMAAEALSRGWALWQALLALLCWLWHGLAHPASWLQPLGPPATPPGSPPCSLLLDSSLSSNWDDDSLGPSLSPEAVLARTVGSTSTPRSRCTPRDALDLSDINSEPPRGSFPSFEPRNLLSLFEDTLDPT
Description: Selectivity interaction (KinomeScan (DiscoverX)) EUB0000618a PKMYT1. Conditions: at 10 µM.

TRAF2 and NCK-interacting protein kinase (Homo sapiens), sequence (Q9UKE5 whole entry, looked up): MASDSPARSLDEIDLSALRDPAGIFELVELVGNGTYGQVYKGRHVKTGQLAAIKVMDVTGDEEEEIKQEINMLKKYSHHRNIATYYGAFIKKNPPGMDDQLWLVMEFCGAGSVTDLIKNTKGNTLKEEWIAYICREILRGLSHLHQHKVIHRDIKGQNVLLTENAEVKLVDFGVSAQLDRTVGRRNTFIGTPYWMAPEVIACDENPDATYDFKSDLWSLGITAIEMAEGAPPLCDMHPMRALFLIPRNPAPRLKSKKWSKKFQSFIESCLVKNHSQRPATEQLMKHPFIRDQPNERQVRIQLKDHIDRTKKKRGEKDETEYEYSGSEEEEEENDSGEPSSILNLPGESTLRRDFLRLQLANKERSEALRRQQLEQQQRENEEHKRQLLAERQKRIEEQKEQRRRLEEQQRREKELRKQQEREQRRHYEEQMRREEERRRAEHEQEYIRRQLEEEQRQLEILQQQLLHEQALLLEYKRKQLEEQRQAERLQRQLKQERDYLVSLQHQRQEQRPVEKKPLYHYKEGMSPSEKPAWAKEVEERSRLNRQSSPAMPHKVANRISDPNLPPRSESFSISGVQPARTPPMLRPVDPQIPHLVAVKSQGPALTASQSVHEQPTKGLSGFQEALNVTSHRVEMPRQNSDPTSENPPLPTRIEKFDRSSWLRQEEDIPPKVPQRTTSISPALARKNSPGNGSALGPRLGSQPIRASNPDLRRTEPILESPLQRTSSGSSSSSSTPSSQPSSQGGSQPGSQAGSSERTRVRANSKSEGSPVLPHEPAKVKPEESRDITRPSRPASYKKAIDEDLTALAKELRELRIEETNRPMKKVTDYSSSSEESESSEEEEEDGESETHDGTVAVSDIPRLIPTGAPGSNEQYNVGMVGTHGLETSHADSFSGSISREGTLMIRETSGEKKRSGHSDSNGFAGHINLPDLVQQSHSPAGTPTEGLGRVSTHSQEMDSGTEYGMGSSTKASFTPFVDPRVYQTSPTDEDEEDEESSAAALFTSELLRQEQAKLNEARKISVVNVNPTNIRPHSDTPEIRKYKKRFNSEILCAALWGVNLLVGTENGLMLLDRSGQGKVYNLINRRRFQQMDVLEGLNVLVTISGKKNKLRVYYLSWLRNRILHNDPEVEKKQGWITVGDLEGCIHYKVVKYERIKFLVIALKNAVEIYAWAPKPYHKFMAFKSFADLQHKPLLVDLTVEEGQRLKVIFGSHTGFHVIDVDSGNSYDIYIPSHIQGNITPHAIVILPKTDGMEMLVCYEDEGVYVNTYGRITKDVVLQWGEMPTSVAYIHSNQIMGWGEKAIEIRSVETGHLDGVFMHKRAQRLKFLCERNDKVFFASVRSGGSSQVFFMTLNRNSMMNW
Receptor-type tyrosine-protein kinase FLT3 (Homo sapiens), sequence (P36888 whole entry): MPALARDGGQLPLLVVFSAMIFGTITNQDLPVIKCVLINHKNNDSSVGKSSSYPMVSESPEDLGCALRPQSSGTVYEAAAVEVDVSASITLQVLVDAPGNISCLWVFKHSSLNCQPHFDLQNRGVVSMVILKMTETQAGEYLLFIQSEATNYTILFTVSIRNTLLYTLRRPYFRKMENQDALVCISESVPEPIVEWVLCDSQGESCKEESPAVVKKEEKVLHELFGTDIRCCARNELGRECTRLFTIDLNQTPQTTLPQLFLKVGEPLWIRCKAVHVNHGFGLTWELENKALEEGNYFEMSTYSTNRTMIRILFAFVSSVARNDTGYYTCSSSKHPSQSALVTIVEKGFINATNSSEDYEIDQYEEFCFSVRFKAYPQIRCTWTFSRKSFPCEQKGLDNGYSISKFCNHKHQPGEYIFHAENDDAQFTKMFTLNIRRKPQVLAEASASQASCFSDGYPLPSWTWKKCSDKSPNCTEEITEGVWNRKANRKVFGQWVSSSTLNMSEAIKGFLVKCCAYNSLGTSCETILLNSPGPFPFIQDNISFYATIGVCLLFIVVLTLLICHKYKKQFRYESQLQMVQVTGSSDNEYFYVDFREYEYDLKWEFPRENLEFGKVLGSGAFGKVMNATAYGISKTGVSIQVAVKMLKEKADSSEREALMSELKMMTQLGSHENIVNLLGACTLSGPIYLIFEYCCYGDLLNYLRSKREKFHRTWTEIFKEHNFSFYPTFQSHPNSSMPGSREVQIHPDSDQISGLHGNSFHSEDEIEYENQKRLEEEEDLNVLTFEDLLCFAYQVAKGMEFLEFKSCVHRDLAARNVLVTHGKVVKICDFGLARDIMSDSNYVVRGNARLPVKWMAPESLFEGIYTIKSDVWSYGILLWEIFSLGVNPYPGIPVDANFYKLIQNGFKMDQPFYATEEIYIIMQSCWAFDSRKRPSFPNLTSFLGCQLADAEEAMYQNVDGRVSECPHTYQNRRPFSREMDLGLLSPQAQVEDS
Serine/threonine-protein kinase B-raf (Homo sapiens), sequence (P15056 whole entry): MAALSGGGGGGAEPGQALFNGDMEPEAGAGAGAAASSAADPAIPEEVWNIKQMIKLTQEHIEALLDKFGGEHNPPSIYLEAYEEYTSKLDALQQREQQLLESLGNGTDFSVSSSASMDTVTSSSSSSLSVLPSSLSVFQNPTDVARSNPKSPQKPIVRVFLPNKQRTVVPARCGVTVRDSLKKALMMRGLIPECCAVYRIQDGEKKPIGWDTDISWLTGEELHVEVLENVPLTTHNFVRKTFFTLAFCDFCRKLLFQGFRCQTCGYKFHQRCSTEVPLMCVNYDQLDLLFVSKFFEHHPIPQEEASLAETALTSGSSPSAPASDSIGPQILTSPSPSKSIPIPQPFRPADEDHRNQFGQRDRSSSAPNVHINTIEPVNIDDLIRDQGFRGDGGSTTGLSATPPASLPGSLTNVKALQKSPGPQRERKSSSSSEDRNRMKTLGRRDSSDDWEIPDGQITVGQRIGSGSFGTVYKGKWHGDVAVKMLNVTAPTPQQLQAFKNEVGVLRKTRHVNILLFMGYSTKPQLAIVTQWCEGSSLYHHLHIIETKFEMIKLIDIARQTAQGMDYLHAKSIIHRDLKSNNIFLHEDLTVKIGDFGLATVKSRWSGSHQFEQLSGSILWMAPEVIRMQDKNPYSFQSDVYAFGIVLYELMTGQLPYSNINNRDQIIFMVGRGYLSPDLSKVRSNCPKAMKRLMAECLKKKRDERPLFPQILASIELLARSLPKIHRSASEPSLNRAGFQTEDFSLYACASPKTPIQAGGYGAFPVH
Calcium/calmodulin-dependent protein kinase type II subunit beta (Homo sapiens), sequence (Q13554 whole entry): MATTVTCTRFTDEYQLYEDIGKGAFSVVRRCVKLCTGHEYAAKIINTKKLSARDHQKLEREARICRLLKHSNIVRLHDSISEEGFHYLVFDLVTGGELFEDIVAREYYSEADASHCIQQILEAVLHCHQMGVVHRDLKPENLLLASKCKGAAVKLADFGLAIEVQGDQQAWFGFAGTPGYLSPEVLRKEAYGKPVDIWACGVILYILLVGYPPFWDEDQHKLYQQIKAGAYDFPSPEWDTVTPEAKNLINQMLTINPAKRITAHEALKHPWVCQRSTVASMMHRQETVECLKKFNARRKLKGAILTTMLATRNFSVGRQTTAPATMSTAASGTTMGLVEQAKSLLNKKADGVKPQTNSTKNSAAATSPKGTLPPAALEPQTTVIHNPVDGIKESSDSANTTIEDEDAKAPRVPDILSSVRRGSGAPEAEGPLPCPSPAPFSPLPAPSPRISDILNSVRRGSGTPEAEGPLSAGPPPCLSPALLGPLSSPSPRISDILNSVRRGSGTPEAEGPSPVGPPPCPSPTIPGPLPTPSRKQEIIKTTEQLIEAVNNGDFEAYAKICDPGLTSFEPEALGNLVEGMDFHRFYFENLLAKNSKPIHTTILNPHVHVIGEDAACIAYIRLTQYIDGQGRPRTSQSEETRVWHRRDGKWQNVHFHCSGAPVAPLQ
Dual specificity mitogen-activated protein kinase kinase 2 (Homo sapiens), sequence (P36507 whole entry): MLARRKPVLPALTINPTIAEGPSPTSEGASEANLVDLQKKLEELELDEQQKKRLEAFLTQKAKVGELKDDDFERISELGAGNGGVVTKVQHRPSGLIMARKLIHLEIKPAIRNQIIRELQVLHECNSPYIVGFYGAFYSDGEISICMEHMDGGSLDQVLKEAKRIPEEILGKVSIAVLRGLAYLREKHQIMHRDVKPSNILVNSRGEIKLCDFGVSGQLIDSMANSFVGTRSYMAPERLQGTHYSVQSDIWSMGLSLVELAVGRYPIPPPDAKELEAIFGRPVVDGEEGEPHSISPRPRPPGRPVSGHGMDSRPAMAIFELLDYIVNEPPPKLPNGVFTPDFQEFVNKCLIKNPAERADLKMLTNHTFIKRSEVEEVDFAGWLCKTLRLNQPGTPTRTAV
Tyrosine-protein kinase Lck, sequence (P06239 whole entry): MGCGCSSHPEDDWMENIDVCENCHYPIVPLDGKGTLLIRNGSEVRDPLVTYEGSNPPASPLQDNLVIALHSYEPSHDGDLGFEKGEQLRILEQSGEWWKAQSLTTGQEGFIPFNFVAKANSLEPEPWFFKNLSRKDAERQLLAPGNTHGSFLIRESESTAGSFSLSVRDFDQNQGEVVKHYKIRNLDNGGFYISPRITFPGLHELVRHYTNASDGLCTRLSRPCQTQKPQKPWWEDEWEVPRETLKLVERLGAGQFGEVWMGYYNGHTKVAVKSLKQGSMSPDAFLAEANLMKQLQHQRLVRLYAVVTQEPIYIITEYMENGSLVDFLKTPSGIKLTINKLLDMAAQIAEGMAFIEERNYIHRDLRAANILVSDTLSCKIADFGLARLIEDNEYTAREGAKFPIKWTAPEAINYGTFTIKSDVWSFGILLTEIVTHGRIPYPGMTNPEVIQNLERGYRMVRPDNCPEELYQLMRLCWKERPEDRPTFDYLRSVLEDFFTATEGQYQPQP

The compound `CCc1cc(Nc2nccc(-c3c(-c4ccc(OC)c(C(=O)Nc5c(F)cccc5F)c4)nc4ccccn34)n2)c(OC)cc1N1CCC(N2CCN(S(C)(=O)=O)CC2)CC1` yielded an IC50 in experiment [1] greater than 3 µM.

Take `CCN(CC)CCCCNc1ncc2cc(-c3cc(OC)cc(OC)c3)c(NC(=O)NC(C)(C)C)nc2n1`: the % of control in [2] worked out at 100%.

`Nc1cnc(N2CCc3cc(S(=O)(=O)Nc4c(F)cc(Cl)cc4F)cc(N4CCCC4=O)c32)nc1` [TP-020n]: in [3], the % of control worked out at 100%.

`COc1cc(Nc2nc(C)cc(-c3cnn4nc(OC)ccc34)n2)cc(C(F)(F)F)c1` had a % of control in experiment [4] of 64%.

The compound `CN(C)CCOc1ccc(-c2nc(-c3ccncc3)c(-c3ccc4c(c3)CC/C4=N\O)[nH]2)cc1` showed a % of control in experiment [5] of 0%.

For the compound `Cc1cnc(Nc2ccc(F)cc2Cl)nc1-c1c[nH]c(C(=O)N[C@H](CO)c2cccc(Cl)c2)c1`, the % of inhibition in experiment [6] was determined as 43%.

`C=CC(=O)Nc1cc(-n2c(=O)ccc3cnc4ccc(-c5ccc(NS(C)(=O)=O)cc5)cc4c32)ccc1C`: the results for the % of control in experiment [7] (at 1 µM) and in [7] (at 10 µM) were 96% and 100%, respectively.

On to `CNC(=O)Nc1ccc(-c2nc(N3CC4CCC(C3)O4)c3cnn(C4CCC5(CC4)OCCO5)c3n2)cc1`, for which the % of control in experiment [8] came to 100%.

`O[C@H]1CC[C@H](Nc2ncc3nc(Nc4c(F)cc(F)cc4F)n([C@H]4CCOC4)c3n2)CC1` returned a % of control in [9] of 92%.
